Data as given in PMC8233136, “Monomeric bile acids modulate the ATPase activity of detergent-solubilized ABCB4/MDR3” (Journal of Lipid Research, 2021).
Where “and” joins values, the source holds several entries; their conditions need not be identical. Equal values may be shown once.

How the values were obtained:
[1] = target: T1, human ABCB4 (Homo sapiens, UniProt P21439); experiment: ATP hydrolysis (malachite green) of detergent-solubilized, purified ABCB4: modulation of basal ATPase activity; assay type: biochemical; settings: for EC50: stimulation of basal ATPase activity, allosteric sigmoidal fit, read-out: EC50; for Emax: vmax of allosteric sigmoidal fit (Equation 1), basal ABCB4 ATPase activity set to 0%, read-out: Max. Stimulation (%)
T1 construct: made in house; host or cells: Pichia pastoris (chromosomally integrated)
T1 sequence (P21439 1-1279 isoform P21439-2): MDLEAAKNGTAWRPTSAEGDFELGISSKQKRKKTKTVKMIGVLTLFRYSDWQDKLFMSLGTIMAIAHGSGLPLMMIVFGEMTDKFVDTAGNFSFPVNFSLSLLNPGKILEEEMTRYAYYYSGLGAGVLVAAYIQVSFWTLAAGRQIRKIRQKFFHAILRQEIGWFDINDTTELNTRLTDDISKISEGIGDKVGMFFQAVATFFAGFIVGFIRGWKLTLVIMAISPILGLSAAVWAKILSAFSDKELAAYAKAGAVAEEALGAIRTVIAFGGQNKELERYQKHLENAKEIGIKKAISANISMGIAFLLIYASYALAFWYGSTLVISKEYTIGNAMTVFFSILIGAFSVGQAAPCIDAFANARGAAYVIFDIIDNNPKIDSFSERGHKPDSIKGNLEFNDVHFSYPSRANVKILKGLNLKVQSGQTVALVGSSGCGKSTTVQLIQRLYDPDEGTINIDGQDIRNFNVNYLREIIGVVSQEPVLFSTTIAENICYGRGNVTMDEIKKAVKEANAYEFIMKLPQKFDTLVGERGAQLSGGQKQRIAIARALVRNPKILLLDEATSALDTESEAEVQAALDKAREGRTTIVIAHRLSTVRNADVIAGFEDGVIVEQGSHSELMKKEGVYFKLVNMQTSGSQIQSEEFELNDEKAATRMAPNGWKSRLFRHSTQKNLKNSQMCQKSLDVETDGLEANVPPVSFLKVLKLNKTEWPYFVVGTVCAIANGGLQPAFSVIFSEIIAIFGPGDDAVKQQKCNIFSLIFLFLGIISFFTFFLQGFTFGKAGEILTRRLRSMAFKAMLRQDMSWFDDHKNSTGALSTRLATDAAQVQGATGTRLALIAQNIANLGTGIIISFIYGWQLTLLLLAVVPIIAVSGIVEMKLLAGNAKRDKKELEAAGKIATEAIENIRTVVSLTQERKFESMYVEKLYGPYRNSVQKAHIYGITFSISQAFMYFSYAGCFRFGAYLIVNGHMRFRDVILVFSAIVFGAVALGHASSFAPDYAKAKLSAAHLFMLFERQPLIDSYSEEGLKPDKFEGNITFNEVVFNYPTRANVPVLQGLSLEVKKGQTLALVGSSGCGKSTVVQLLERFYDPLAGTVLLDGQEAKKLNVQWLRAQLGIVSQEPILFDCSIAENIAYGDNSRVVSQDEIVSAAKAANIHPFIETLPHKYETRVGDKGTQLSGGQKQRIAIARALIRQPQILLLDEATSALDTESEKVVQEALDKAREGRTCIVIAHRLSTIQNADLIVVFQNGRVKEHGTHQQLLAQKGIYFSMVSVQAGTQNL
Procedure: (§1) The sodium salts of conjugated and unconjugated bile acids were dissolved in double-distilled water (ddH2O) or 100% DMSO at a concentration of 100 mM. While glyco-/tauro-/cholic acid (G/T/CA), glyco-/tauro-/chenodeoxycholic acid (G/T/CDCA) were dissolved in ddH2O water, glyco-/tauro-/deoxycholic acid (G/T/DCA), glyco/-tauro-/ursodeoxycholic acid (G/T/UDCA) as wells as Nor-UDCA and taurolithocholic acid (TLCA) were dissolved in DMSO. […] Modulation of the ATP hydrolysis by bile acid was determined in a concentration-dependent manner from 0 to 1,000 μM bile acids.
(§2) Analysis of the ATP activity of ABCB4 was performed by determining the amount of released, free inorganic orthophosphate by the malachite green assay ([53], [54], [60]) with minor modifications. The assay was performed in a total volume of 100 μl consisting of reaction buffer (50 mM Tris HCl, pH 7.4 at 37°C, 100 mM NaCl) supplemented with the 2.5 × cmc of FC-16 and 10 mM MgCl2. For determining the effect of DOPC, different bile acids or combinations thereof, 1–5 μL of the corresponding stock solutions (see lipid and bile acid preparation) were added. Five micrograms of ABCB4 or the BODIPY®-labeled sample was used in every reaction sample. Reaction was started by addition of ATP (5 mM f.c.) and performed for 40 min at 37°C. After 0 and 40 min, the reaction was stopped by transferring 25 μl of the reaction mixture into a 96-well plate containing 175 μl of 20 mM ice-cold sulfuric acid. Additionally, a phosphate standard with concentrations raging from 0 to 500 μM was used. Subsequently, inorganic phosphate was stained by adding 50 μl of dye (0.096% (w/v) malachite green, 1.48% (w/v) ammonium molybdate, 0.173% (w/v) Tween-20, and […] sulfuric acid). After incubation for 15 min, the absorption at 595 nm was measured (iMark™ Microplate Reader, BioRad), and the concentrations of phosphate release were calculated based on the slope of the line calculated based on the phosphate standards.
(§3) Basal ATPase activity of ABCB4 was set to 0% and the effect of supplements was calculated as % stimulation or % inhibition of the basal activity, respectively. For determination of kinetic parameters, bile acid concentration was varied and analyzed according to an allosteric sigmoidal fit (Equation 1):(1) v=vmax∗[S]^h/EC50h+[S]^h
Here, v describes the stimulation (%), vmax is the maximal stimulation (%), EC50 represents the half maximal effective concentration, S is the substrate concentration, and h is the Hill coefficient
In case of inhibition, the reduction (%) was plotted against the bile acid concentration and data were analyzed using Equation 2:(2) y=ymin+(ymax−ymin)/1+10^((logIC50−x)∗slope)
Here, ymax is the smallest, and ymin is the highest amount of inhibition, respectively, and x represents the concentration of the inhibitor. The IC50 value is defined as the concentration necessary to obtain 50% inhibition.
In case of both substrate stimulations, followed by substrate inhibition after maximal stimulation was reached, the modulation (%) was plotted against the substrate concertation and data was analyzed using by two fits: First part (stimulation) was as usually fitted using Equation 1. The second part (substrate inhibition) was analyzed by Equation 3 starting at the last point of the plateau:(3) y=ymin+[…]/(1+x/IC50)
Here, ymax is the highest value of the plateau after stimulation is reached, while ymin is the smallest value of y after maximal stimulation was reached.

[2] = target: T1, human ABCB4; experiment: ATP hydrolysis (malachite green) of purified ABCB4 in the presence of 300 μM DOPC (with or without cholesterol); assay type: biochemical; settings: for activity at 1000 µM: 1,000 μM bile acid/detergent/BAM + 300 μM DOPC, read-out: Relative ATPase activity in the presence of 300 μM DOPC
Procedure: A sample of purified ABCB4 was incubated with 10-fold molar excess of BODIPY® FL maleimide (BODIPY® FL N-(2-aminoethyl)maleimide, Molecular Probes) at 22°C for 20 min. The reaction was quenched after 20 min by addition of a 20-fold molar excess of dithiothreitol (DTT) at 22°C for 10 min. Qualitative labeling efficiency was analyzed by visualizing a sample after SDS-PAGE by UV excitation.
DOPC was dissolved in chloroform, the solvent was evaporated, and the dried lipid sample was redissolved in ATP hydrolysis reaction buffer (50 mM Tris HCl, pH 7.4 at 37°C, 100 mM NaCl) at a concentration of 25.4 mM following the protocol of Geertsma et al. ([59]). Prior to the addition of the DOPC sample to the ATP hydrolysis assay, it was diluted to 5 mM, sonicated until a clear solution was obtained, and subsequently used at a final concentration of 300 μM. Since chloroform is not suitable for the later ATPase assay and cholesterol at higher concentration is insoluble in water and nearly all solvents, a molar mixture of cholesterol and DOPC was used. This mixture was obtained by adding the required molar ratio of cholesterol to always the same amount of dried DOPC. Afterward, the mixture was treated identical to DOPC only as described above resulting in a final concentration (f.c.) of 300 μM DOPC with 0–1,000 μM cholesterol in the ATPase assay.
as §1, §2, §3

[3] = Critical micelle concentration by Hoechst 33342 fluorescence in ATPase reaction buffer; assay type: physicochemical; settings: 50 mM Tris-HCl pH 7.5, 100 mM NaCl, 37°C; no FC-16, MgCl2 or ATP
Procedure: CMC values were determined as described ([61]). […] 96-well plates suitable for fluorescence spectroscopy (Greiner Bio-One, FIA plate, black, flat bottom, medium binding) were used. […] CMCs of the bile acids were determined in ATPase reaction buffer (50 mM Tris-HCl, pH 7.5 (at 37°C), 100 mM NaCl) containing no FC-16, MgCl2, or ATP at 37°C using a Tecan M200 plate reader (Atlantic lab equipment). Bile acids were dissolved either in ddH2O or in 100% DMSO (as stated in “Lipid, cholesterol and bile acid preparation”) at a concentration of 100 mM. […] In case of hydrophobic bile acids, which were dissolved in DMSO, DMSO concentration was adapted to 1% in all wells. […] After background correction, fluorescence data were analyzed using Prism (version 8, GraphPad) with Equation 4:(4) F=Fmax∗(c[BA]−cmc)/(K0.5−cmc)+(c[BA]−cmc)
The measured fluorescence at each bile acid concentration (c[BA]) is represented by F, while Fmax is the maximal fluorescence, K0.5 is the midpoint of the function, and cmc is the critical micelle concentration of the bile acid.

[4] = Solubility / precipitation of bile acids under assay conditions; assay type: physicochemical; settings: assay setup, DMSO stock
Procedure: as §1, with “DMSO. Glyco- and unconjugated lithocholic acid could not be dissolved in DMSO in the appropriate concentrations and therefore excluded.” for “DMSO.”

[5] = Hill coefficient of allosteric sigmoidal fit of ATPase stimulation

Slope [1, 5]	EC50 ([1]; 0-1,000 μM) [µM]	Emax ([1]; 0-1,000 μM) [%]	activity at 1000 µM ([2]; DOPC alone set to 100%) [%]	Critical micelle concentration (cmc) [3]	Increase of ATPase activity compared with UDCA ([1]; maximal stimulation, side chain shortened by one carbon atom)	ATPase activity in the presence of cholesterol:DOPC 1.5:1 ([2]; 1,000 μM BAM or Nor-UDCA added to cholesterol:DOPC (1.5:1, 300 μM DOPC), DOPC alone set to 100%) [%]	Concentration at which maximal stimulation (plateau) of ATPase activity is reached ([1]; basal ATPase activity, 0-1,000 μM)	Reduction of ATPase activity at 100 μM ([1]; 100 μM) [%]	inhibition at 1000 µM ([1]; 1,000 μM, 5% DMSO, mixture experiment Fig. 6, read-out: Inhibition of basal ATPase activity by pure bile acid at 1,000 μM) [%]	Concentration at which maximal inhibition is reached ([1]; basal ATPase activity) [µM]	IC50 ([1]; inhibition of basal ATPase activity, Equation 2) [µM]	Slope ([1]; slope of inhibition fit (Equation 2))	Decrease of DOPC-stimulated ATPase activity ([2]; 1,000 μM + 300 μM DOPC, relative to DOPC alone)	Compound	Concentration above which the bile acid precipitated [4]
6.3 ± 1.3	476 ± 18.5	195 ± 10.8	373 ± 30	1.8 mM and 1.8 ± 0.1 mM	approximately 85%	380.7 ± 45.6	–	–	–	–	–	–	–	C[C@H](CC(=O)O)[C@H]1CC[C@H]2[C@@H]3[C@@H](O)C[C@@H]4C[C@H](O)CC[C@]4(C)[C@H]3CC[C@]12C [Nor-UDCA, 24-nor-ursodeoxycholic acid]	–
2.6 ± 0.4	169 ± 11	423 ± 15	112 ± 8.2	1.7 mM and 1.7 ± 0.1 mM	–	–	approximately 500 μM	–	–	–	–	–	–	C[C@H](CCC(=O)NCCS(=O)(=O)O)[C@H]1CC[C@H]2[C@@H]3[C@H](O)C[C@@H]4C[C@H](O)CC[C@]4(C)[C@H]3CC[C@]12C [TCDCA, taurochenodeoxycholic acid]	–
2.7 ± 0.3	102 ± 4.2	217 ± 4	84.8 ± 9.3	1.7 mM and 1.7 ± 0.1 mM	–	–	–	–	–	–	–	–	–	C[C@H](CCC(=O)NCCS(=O)(=O)O)[C@H]1CC[C@H]2[C@@H]3CC[C@@H]4C[C@H](O)CC[C@]4(C)[C@H]3C[C@H](O)[C@]12C [TDCA]	–
–	–	–	34.8 ± 21.9	0.14 mM and 0.14 ± 0.03 mM	–	–	–	36	~50	400	113	−2.7 ± 2.1	approximately 65%	C[C@H](CCC(=O)NCCS(=O)(=O)O)[C@H]1CC[C@H]2[C@@H]3CC[C@@H]4C[C@H](O)CC[C@]4(C)[C@H]3CC[C@]12C [TLCA, taurolithocholic acid]	–
4.5 ± 1.4	267	154 ± 11	88.2 ± 8.3	1.5 mM and 1.5 ± 0.2 mM	–	–	–	–	–	–	–	–	–	C[C@H](CCC(=O)NCCS(=O)(=O)O)[C@H]1CC[C@H]2[C@@H]3[C@@H](O)C[C@@H]4C[C@H](O)CC[C@]4(C)[C@H]3CC[C@]12C [TUDCA]	–

Compound	Slope [1, 5]	EC50 ([1]; 0-1,000 μM) [µM]	Emax ([1]; 0-1,000 μM) [%]	activity at 1000 µM ([2]; DOPC alone set to 100%) [%]	Critical micelle concentration (cmc) [3]	Increase of ATPase activity compared with UDCA ([1]; maximal stimulation, side chain shortened by one carbon atom)	ATPase activity in the presence of cholesterol:DOPC 1.5:1 ([2]; 1,000 μM BAM or Nor-UDCA added to cholesterol:DOPC (1.5:1, 300 μM DOPC), DOPC alone set to 100%) [%]	Concentration at which maximal stimulation (plateau) of ATPase activity is reached ([1]; basal ATPase activity, 0-1,000 μM)	Reduction of ATPase activity at 100 μM ([1]; 100 μM) [%]	inhibition at 1000 µM ([1]; 1,000 μM, 5% DMSO, mixture experiment Fig. 6, read-out: Inhibition of basal ATPase activity by pure bile acid at 1,000 μM) [%]	Concentration at which maximal inhibition is reached ([1]; basal ATPase activity) [µM]	IC50 ([1]; inhibition of basal ATPase activity, Equation 2) [µM]	Slope ([1]; slope of inhibition fit (Equation 2))	Decrease of DOPC-stimulated ATPase activity ([2]; 1,000 μM + 300 μM DOPC, relative to DOPC alone)	Concentration above which the bile acid precipitated [4]
C[C@H](CCC(=O)NCC(=O)O)[C@H]1CC[C@H]2[C@@H]3CC[C@@H]4C[C@H](O)CC[C@]4(C)[C@H]3C[C@H](O)[C@]12C [GDCA]	5.9 ± 1.2	47.9 ± 1.5	259 ± 5	156 ± 8.9	2.0 mM and 2.0 ± 0.1 mM	–	–	–	–	–	–	–	–	–	–
C[C@H](CCC(=O)NCC(=O)O)[C@H]1CC[C@H]2[C@@H]3[C@@H](O)C[C@@H]4C[C@H](O)CC[C@]4(C)[C@H]3CC[C@]12C [GUDCA]	4.5 ± 1.0	393	185 ± 13	111 ± 3.1	1.6 mM and 1.6 ± 0.1 mM	–	–	–	–	–	–	–	–	–	–
C[C@H](CCC(=O)NCC(=O)O)[C@H]1CC[C@H]2[C@@H]3CC[C@@H]4C[C@H](O)CC[C@]4(C)[C@H]3CC[C@]12C [Glycolithocholic acid]	–	–	–	–	Precipitate ^a	–	–	–	–	–	–	–	–	–	higher than 100 μM
C[C@H](CCC(=O)O)[C@H]1CC[C@H]2[C@@H]3[C@@H](O)C[C@@H]4C[C@H](O)CC[C@]4(C)[C@H]3CC[C@]12C [UDCA, Ursodeoxycholic acid]	4.6 ± 1.3	470 ± 34.5	110 ± 10.7	115 ± 22.1	1.3 mM and 1.3 ± 0.1 mM	–	–	–	–	–	–	–	–	–	–
